Legend:
Assay type in all cases: in vivo
Setaria viridis (SETVI) = assay: C. Herbicidal pre-emergence efficacy, SETVI; conditions: scored after about 3 weeks
How it was run: (§1)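 Pre-emergence test: formulated compounds sprayed as aqueous suspension or emulsion with 0.5% additive at 600 l/ha onto soil covering sown seeds, at rates corresponding to 320 g/ha or less. After about 3 weeks in greenhouse, efficacy scored visually as percent versus untreated controls (100% = plants dead).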

Veronica persica (VERPE) [1] = assay: A. Herbicidal pre-emergence efficacy, VERPE; conditions: for Pre-emergence efficacy against VERPE: dosage 80 g/ha
How it was run: (§2)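 Pre-emergence soil-surface spray in sandy loam pots, WP/EC in water plus 0.5% additive, 600 L/ha. Visual % damage rating after about 3 weeks in greenhouse vs. untreated; 0% = control-like, 100% = dead plants. Rates up to 1280 g/ha.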

Stellaria media (STEME) = assay: A. Herbicidal pre-emergence efficacy, STEME
How it was run: as §2

Viola tricolor (VIOTR) = assay: C. Herbicidal pre-emergence efficacy, VIOTR
How it was run: as §1

Poa annua (POAAN) = assay: A. Herbicidal pre-emergence efficacy, POAAN
How it was run: as §2

Veronica persica (VERPE) [2] = assay: C. Herbicidal pre-emergence efficacy, VERPE; conditions: scored after about 3 weeks
How it was run: as §1

[3] = system: Abutilon theophrasti (ABUTH); assay: C. Herbicidal pre-emergence efficacy, ABUTH; conditions: scored after about 3 weeks
Source text: Seeds of monocotyledonous and dicotyledonous weed plants and crop plants were placed in plastic or organic planting pots and covered with soil. The compounds of the invention, formulated in the form of wettable powders (WP) or as emulsion concentrates (EC), were then applied to the surface of the covering soil as aqueous suspension or emulsion with addition of 0.5% additive at a water application rate equivalent to 600 l/ha (converted). After the treatment, the pots were placed in a greenhouse and kept under good growth conditions for the test plants. After about 3 weeks, the efficacy of the preparations was scored visually in comparison with untreated controls as percentages. For example, • 100% efficacy=plants have died, • 0% efficacy=like untreated control plants.
Tables C1a to C14b below show the effects of selected compounds of the general formula (I) according to table 1 on various harmful plants at an application rate corresponding to 320 g/ha or less, which were obtained by the experimental procedure mentioned above.

Veronica persica (VERPE) [4] = assay: B. Herbicidal post-emergence efficacy, VERPE
How it was run: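 Post-emergence foliar spray, at application rates of 1280 g/ha or less, on one-leaf-stage plants 2–3 weeks post-sowing, using aqueous WP or EC suspensions with 0.5% additive at 600 L/ha. Visual percent efficacy relative to untreated plants scored roughly 3 weeks later in the greenhouse.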

| Compound | Pre-emergence efficacy against SETVI (Setaria viridis (SETVI); 80 g/ha) | Pre-emergence efficacy against SETVI (Setaria viridis (SETVI); 320 g/ha) | Pre-emergence efficacy against VERPE in % (Veronica persica (VERPE) [1]; 320 g/ha) | Pre-emergence efficacy against VERPE in % (Veronica persica (VERPE) [1]; 1280 g/ha) | Pre-emergence efficacy against VERPE (Veronica persica (VERPE) [1]) | Pre-emergence efficacy against STEME (Stellaria media (STEME); dosage 80 g/ha) | Pre-emergence efficacy against STEME (Stellaria media (STEME); dosage 320 g/ha) | Pre-emergence efficacy against STEME (Stellaria media (STEME); dosage 1280 g/ha) | Pre-emergence efficacy against VIOTR in % (Viola tricolor (VIOTR); application rate 80 g/ha) | Pre-emergence efficacy against VIOTR in % (Viola tricolor (VIOTR); application rate 320 g/ha) | Pre-emergence efficacy against POAAN (Poa annua (POAAN); dosage 80 g/ha) | Pre-emergence efficacy against POAAN (Poa annua (POAAN); dosage 320 g/ha) | Pre-emergence efficacy against POAAN (Poa annua (POAAN); dosage 1280 g/ha) | Pre-emergence efficacy against VERPE (Veronica persica (VERPE) [2]; 80 g/ha) | Pre-emergence efficacy against VERPE (Veronica persica (VERPE) [2]; 320 g/ha) | Pre-emergence efficacy against ABUTH ([3]; 80 g/ha) | Pre-emergence efficacy against ABUTH ([3]; 320 g/ha) | Post-emergence efficacy against VERPE (Veronica persica (VERPE) [4]; 80 g/ha) | Post-emergence efficacy against VERPE (Veronica persica (VERPE) [4]; 320 g/ha) | Post-emergence efficacy against VERPE (Veronica persica (VERPE) [4]; 1280 g/ha) |
| --- | --- | --- | --- | --- | --- | --- | --- | --- | --- | --- | --- | --- | --- | --- | --- | --- | --- | --- | --- | --- |
| O=S(=O)(CCCCl)Oc1ccccc1Oc1ncc(Cl)cn1 [Example I-2] | 100% | 100% | 100% | 100% | 100% | 100% | 100% | 100% | 100% | 100% | 100% | 100% | 100% | 90% | 100% | 100% | 100% | 100% | 100% | 100% |
| CCCS(=O)(=O)Oc1ccccc1Oc1ncc(Cl)cn1 [Example I-3] | 100% | 100% | 100% | 100% | 100% | 100% | 100% | 100% | 90% | 100% | 90% | 100% | 100% | – | 100% | 100% | 100% | 90% | 100% | 100% |
| O=S(=O)(CCCCl)Oc1ccccc1Oc1ncc(F)cn1 [Example I-5] | 90% | 100% | 100% | 100% | 90% | 90% | 100% | 100% | 100% | 100% | 90% | 100% | 100% | 100% | 100% | – | 100% | 100% | 100% | 100% |
| CCCCS(=O)(=O)Oc1ccccc1Oc1ncc(Cl)cn1 [Example I-6] | 90% | 100% | – | 90% | – | 100% | 100% | 100% | 80% | 90% | – | 90% | 90% | 80% | 90% | 90% | 100% | – | 90% | 90% |
| CC(C)CS(=O)(=O)Oc1ccccc1Oc1ncc(Cl)cn1 [Example I-7, [2-(5-Chloropyrimidin-2-yl)oxyphenyl] 2-methylpropane-1-sulfonate] | 100% | 100% | – | 100% | – | 90% | 90% | 100% | 80% | 100% | 100% | 100% | 100% | 90% | 100% | – | 100% | – | – | – |
| O=S(=O)(CCCC(F)(F)F)Oc1ccccc1Oc1ncc(Cl)cn1 [Example I-10] | 100% | 100% | 100% | 100% | 90% | 100% | 100% | 100% | 90% | 100% | 100% | 100% | 100% | 100% | 100% | 100% | 100% | – | – | – |
| Cc1cccc(OS(=O)(=O)CCCCl)c1Oc1ncc(Cl)cn1 [Example I-12] | – | – | 90% | 100% | – | – | 100% | 100% | – | 90% | – | 100% | 100% | – | 90% | 80% | 90% | – | – | 90% |
| O=S(=O)(CCCCl)Oc1cccc(F)c1Oc1ncc(Cl)cn1 [Example I-13] | – | – | – | 100% | – | 100% | 100% | 100% | – | – | – | 90% | 100% | – | 90% | – | 90% | 90% | 100% | 100% |
| O=S(=O)(CCCC(F)(F)F)Oc1c(F)cccc1Oc1ncc(F)cn1 [Example I-42] | 100% | 100% | 100% | 100% | 100% | 100% | 100% | 100% | 100% | 100% | 100% | 100% | 100% | 100% | 100% | 100% | 100% | – | – | – |
| O=S(=O)(CCC1CC1)Oc1c(F)cccc1Oc1ncc(Cl)cn1 [Example I-55] | 80% | 90% | 100% | 100% | – | – | 100% | 100% | – | 100% | – | 90% | 100% | – | 100% | – | – | 90% | 90% | 90% |
| O=S(=O)(CCC(F)=C(F)F)Oc1c(F)cccc1Oc1ncc(Cl)cn1 [Example I-70] | 90% | 100% | – | – | – | – | – | – | 100% | 100% | – | – | – | 80% | 100% | 80% | 100% | – | – | – |
| N#Cc1cccc(Oc2ncc(Cl)cn2)c1OS(=O)(=O)CCCC(F)(F)F [Example I-81] | 100% | 100% | – | – | – | – | – | – | 100% | 100% | – | – | – | 100% | 100% | – | 100% | – | – | – |

Source: patent US20240174618A1, “SUBSTITUTED (2-HETEROARYLOXYPHENYL)SULFONATES, SALTS THEREOF AND THEIR USE AS HERBICIDAL AGENTS” (Bayer Aktiengesellschaft, priority 2021, published 2024)
